Bounds are passed on as bounds.

9 compounds from patent publication US12084472B2 (Ardelyx, Inc., priority 2015, dated 2024) can be followed below.

This assay deals with T1, human TGR5 (Homo sapiens, UniProt Q8TDU6).
T1 construct: expressed in transfected cells; host or cells: HEK293
T1 sequence (Q8TDU6 1-330): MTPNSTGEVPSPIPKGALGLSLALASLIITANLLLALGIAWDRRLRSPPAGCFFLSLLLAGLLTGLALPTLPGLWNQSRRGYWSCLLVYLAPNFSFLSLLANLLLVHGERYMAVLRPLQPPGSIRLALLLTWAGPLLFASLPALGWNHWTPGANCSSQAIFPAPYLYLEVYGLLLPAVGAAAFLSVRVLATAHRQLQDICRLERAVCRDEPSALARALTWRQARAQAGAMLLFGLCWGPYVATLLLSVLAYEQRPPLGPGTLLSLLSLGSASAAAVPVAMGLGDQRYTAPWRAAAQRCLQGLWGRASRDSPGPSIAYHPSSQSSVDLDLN
As to the kind of experiment: Cell-based TGR5 assay (cAMP generation, HTRF). To be noted: HEK293 cells stably transfected with human TGR5; cAMP by HTRF; 30 minutes at 37° C.; read-out: pEC50 Human TGR5 (converted). In outline:
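Read-out was HTRF detection of cAMP, converted to concentration via a standard curve and fitted (3-parameter logistic) for pEC50 and maximal response. Agonist stimulation used HEK293 cells stably transfected with human TGR5, incubated 30 min at 37° C in IBMX-containing buffer at 0.05 nM to 10 μM compound.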
(In general: TR-FRET usually uses a lanthanide donor and a delayed reading to cut background.)
For `CC(C)C(=O)N(CCCCc1cc(Cl)c(COC2(c3cnccc3-c3ccccc3OC3CC3)CC2)cc1Cl)C[C@H](O)[C@@H](O)[C@H](O)[C@H](O)CO` [Compound I-69, N-{4-[2,5-dichloro-4-({1-[4-(2-cyclopropoxyphenyl)pyridin-3-yl]cyclopropoxy}methyl)phenyl]butyl}-2-methyl-N-[(2S,3R,4R,5R)-2,3,4,5,6-pentahydroxyhexyl]propanamide], the EC50 is 126 to 1000 nM. Then `O=C(CCS(=O)(=O)c1ccccc1)N(CCCCc1cc(Cl)c(COC2(c3cnccc3-c3ccccc3OC3CC3)CC2)cc1Cl)C[C@H](O)[C@@H](O)[C@H](O)[C@H](O)CO` [Compound I-70, 3-(benzenesulfonyl)-N-{4-[2,5-dichloro-4-({1-[4-(2-cyclopropoxyphenyl)pyridin-3-yl]cyclopropoxy}methyl)phenyl]butyl}-N-[(2S,3R,4R,5R)-2,3,4,5,6-pentahydroxyhexyl]propanamide], with 126 to 1000 nM; and `O=C(CO)N(CCCCc1cc(Cl)c(COC2(c3cnccc3-c3ccccc3OC3CC3)CC2)cc1Cl)C[C@H](O)[C@@H](O)[C@H](O)[C@H](O)CO` [Compound I-71, N-{4-[2,5-dichloro-4-({1-[4-(2-cyclopropoxyphenyl)pyridin-3-yl]cyclopropoxy}methyl)phenyl]butyl}-2-hydroxy-N-[(2S,3R,4R,5R)-2,3,4,5,6-pentahydroxyhexyl]acetamide], with below 100 nM; and `COCC(=O)N(CCCCc1cc(Cl)c(COC2(c3cnccc3-c3ccccc3OC3CC3)CC2)cc1Cl)C[C@H](O)[C@@H](O)[C@H](O)[C@H](O)CO` [Compound I-72, N-{4-[2,5-dichloro-4-({1-[4-(2-cyclopropoxyphenyl)pyridin-3-yl]cyclopropoxy}methyl)phenyl]butyl}-2-methoxy-N-[(2S,3R,4R,5R)-2,3,4,5,6-pentahydroxyhexyl]acetamide], with below 100 nM. Then `CCC(=O)N(CCCCc1cc(Cl)c(COC2(c3cnccc3-c3ccccc3OC3CC3)CC2)cc1Cl)C[C@H](O)[C@@H](O)[C@H](O)[C@H](O)CO` [Compound I-73, N-{4-[2,5-dichloro-4-({1-[4-(2-cyclopropoxyphenyl)pyridin-3-yl]cyclopropoxy}methyl)phenyl]butyl}-N-[(2S,3R,4R,5R)-2,3,4,5,6-pentahydroxyhexyl]propanamide], with below 100 nM; and `CCCC(=O)N(CCCCc1cc(Cl)c(COC2(c3cnccc3-c3ccccc3OC3CC3)CC2)cc1Cl)C[C@H](O)[C@@H](O)[C@H](O)[C@H](O)CO` [Compound I-74, N-{4-[2,5-dichloro-4-({1-[4-(2-cyclopropoxyphenyl)pyridin-3-yl]cyclopropoxy}methyl)phenyl]butyl}-N-[(2S,3R,4R,5R)-2,3,4,5,6-pentahydroxyhexyl]butanamide], with 126 to 1000 nM; and `COCCC(=O)N(CCCCc1cc(Cl)c(COC2(c3cnccc3-c3ccccc3OC3CC3)CC2)cc1Cl)C[C@H](O)[C@@H](O)[C@H](O)[C@H](O)CO` [Compound I-75, N-(4-(2,5-dichloro-4-((1-(4-(2-cyclopropoxyphenyl)pyridin-3-yl)cyclopropoxy)methyl)phenyl)butyl)-3-methoxy-N-((2S,3R,4R,5R)-2,3,4,5,6-pentahydroxyhexyl)propanamide], with below 100 nM. On to `COCCNC(=O)N(CCCCc1cc(Cl)c(COC2(c3cnccc3-c3ccccc3OC3CC3)CC2)cc1Cl)C[C@H](O)[C@@H](O)[C@H](O)[C@H](O)CO` [Compound I-76, 1-{4-[2,5-dichloro-4-({1-[4-(2-cyclopropoxyphenyl)pyridin-3-yl]cyclopropoxy}methyl)phenyl]butyl}-3-(2-methoxyethyl)-1-[(2S,3R,4R,5R)-2,3,4,5,6-pentahydroxyhexyl]urea], for which the EC50 is 126 to 1000 nM. In the case of `O=C1O[C@H]([C@@H](O)[C@H](O)[C@H](O)CO)CN1CCCCc1cc(Cl)c(COC2(c3cnccc3-c3ccccc3OC3CC3)CC2)cc1Cl` [Compound I-77, (5S)-3-{4-[2,5-dichloro-4-({1-[4-(2-cyclopropoxyphenyl)pyridin-3-yl]cyclopropoxy}methyl)phenyl]butyl}-5-[(1S,2R,3R)-1,2,3,4-tetrahydroxybutyl]-1,3-oxazolidin-2-one], the EC50 was below 100 nM.
